Experimental data taken from US9499493B2, “2,4-pyrimidinediamine compounds and their uses” (Rigel Pharmaceuticals, Inc., priority 2002, dated 2016).
Read-outs that look alike come from different tables or passages of the source.

Experiments:
[1] = 14-day repeat-dose intranasal toxicity study in New Zealand White rabbits; type: in vivo
Method: A 14-day repeat-dose intranasal toxicity study in New Zealand White rabbits was performed at doses of 1.7, 3.4 or 5.0 mg/kg/day. In life parameters included: clinical observations, body weights, food consumption, ophthalmology, hematology, clinical chemistry, gross necropsy, organ weights, toxicokinetic assessments and histopathology (including the nasal cavity).

Syk kinase = Syk kinase (Homo sapiens (Human), UniProt P43405); experiment: Isolated Syk kinase: phosphorylation of a peptide substrate or endogenous substrate (LAT); conditions: increasing concentrations; FIG. 8
[2] = Core safety pharmacology battery (cardiovascular, respiratory, central nervous system function); conditions: in vivo
Source text: (§1) A short discussion of key toxicology studies is provided.

[3] = 14-day repeat-dose intranasal toxicity study in Cynomolgus monkeys; type: in vivo
Method: A 14-day repeat-dose intranasal toxicity study in Cynomolgus monkeys was performed at doses of 2.1, 4.5 or 6.3 mg/kg/day. In life parameters included: clinical observations, body weights, food consumption, ophthalmology, blood pressure, electrocardiography, hematology, clinical chemistry, urinalysis, immunotoxicological assessment, gross necropsy, organ weights, toxicokinetic assessments and histopathology (including the nasal cavity).

[4] = Sheep model of allergic asthma (Ascaris suum challenge); type: in vivo
Method: Sheep develop bronchoconstriction within minutes of exposure to inhaled antigen (Ascaris suum), with maximal airflow obstruction during the early allergic response (EAR). Release of preformed mast cell mediators is likely responsible for this early phase of airflow obstruction. […] In the sheep, AHR develops a few hours following antigen challenge, and can persist for up to 2 weeks.
In the sheep model of allergic asthma, sheep are administered aerosols of test article via an endotracheal tube, followed by an aerosol challenge with antigen extracted from the roundworm, Ascaris suum, to which the sheep are naturally allergic. Allergen challenge leads to direct bronchoconstriction (both EAR and LAR) and a persistent non-specific AHR. These three characteristics are similar to those seen in human allergic asthmatics. The activity of the test agent is determined by changes in the lung resistance (RL), which is calculated from measurements of transpulmonary pressure, flow, and respiratory volume. […] The LAR is a less pronounced increase in RL, which starts approximately 5-6 hours following allergen challenge and is resolved by 8 hours post-challenge. Twenty-four hours after the challenge, a dose response to carbachol is measured to determine the AHR, which is expressed as the dose of carbachol required to increase RL by 400% over baseline. (This measurement is referred to as the provocative concentration of carbachol that elicits a 400% increase in RL over baseline (PC400). The data are compared to historical control data for the same individual when administered a saline control aerosol and challenged with Ascaris suum.

[5] = Immediacy (time course) of inhibitory activity; type: cell-based; conditions: FIG. 5
[6] = test system: IgE-induced degranulation of tissue mast cells; experiment: Mouse model of passive cutaneous anaphylaxis (PCA); type: in vivo; conditions: for % Inhibition (PCA) / Plasma level: PO
Method: (§2) This model provides a direct measure of IgE-induced degranulation of tissue mast cells. In this model, IgE primed animals are exposed to an allergen challenge, and the change in permeability of dermal vasculature that results from histamine release from mast cells is measured by change in the amount of dye leakage into surrounding tissue. Inhibition of mediator release by compounds that modulate mast cell degranulation is easily measured by extracting the dye from the tissue.
(§3) In the PCA assay mice are passively sensitized by intradermal injection with anti-dinitrophenol (DNP) IgE antibodies (Day −1). At predetermined times animals are treated with the test agent (Day 0). The modulatory effect of the agent on cutaneous mast cell degranulation is measured following intravenous injection of DNP conjugated to human serum albumin (HSA-DNP), together with Evans blue dye. The resulting cross-linking of the IgE receptor and subsequent mast cell degranulation-induced increase in vascular permeability is determined by measuring the amount of dye extravasation into the tissue. Dye is extracted from the tissue by formamide, and the absorbance of this extract is read at 620 nm.

[7] = 14-day repeat-dose toxicity studies (summary of non-clinical safety program); type: in vivo, rabbits and primates; mice and rats
Source text: as §1

CHMC cells [8] = experiment: Phosphorylation of proteins downstream of Syk / LYN kinase in the FcεRI cascade, activated CHMC cells; type: cell-based, human; conditions: varying concentrations, FIG. 10
CHMC cells [9] = experiment: anti-IgE-induced calcium ion flux in CHMC cells; type: cell-based, human; conditions: 10 μM compound
[10] = Genetic toxicology testing
Source text: as §1

BMMC cells = experiment: Phosphorylation of proteins downstream of Syk kinase in the IgE receptor cascade, activated BMMC cells; type: cell-based, mouse; conditions: varying concentrations, FIG. 7
[11] = Exposure to skin and eyes; conditions: in vivo
Source text: as §1

[12] = test system: FcγRI-mediated degranulation; experiment: FcγRI receptor-mediated degranulation (activation with anti-human IgG Fab fragment); type: cell-based; conditions: cells not primed with IgE, activated with rabbit anti-human IgG Fab fragment
CHMC cells [13] = experiment: ionomycin-induced calcium ion flux in CHMC cells; type: cell-based, human; conditions: 10 μM compound
[14] = test system: Salmonella-Escherichia coli tester strains; conditions: Salmonella / Escherichia coli
[15] = Pharmacokinetics / oral bioavailability in rats; type: in vivo; conditions: rat, in vivo
Method: Over 50 2,4-pyrimidinediamine compounds of the invention were tested for oral bioavailability. For the study, compounds were dissolved in various vehicles (e.g. PEG 400 solution and CMC suspension) for intravenous and oral dosing in the rats. Following administration of the drug, plasma samples were obtained and extracted. The plasma concentrations of the compounds were determined by high performance liquid chromatography/tandem mass spectrometry (LC/MS/MS) methods. Pharmacokinetic analyses were performed based on the plasma concentration data. The pharmacokinetic parameters of interest include Clearance (CL), Volume of distribution at steady-state (Vss), terminal half-life (t1/2), and oral bioavailability (% F).

[16] = in vitro chromosomal aberration assay
[17] = Mouse model of passive cutaneous anaphylaxis (PCA); type: in vivo; conditions: mouse, plasma, PO, 1.5% Avicel/water, 200 mg/kg, read-out: Plasma level (duration of action)
Method: as §2, §3

in vivo = conditions: mouse, po
[18] = type: in vivo; conditions: rat, 50, 150 and 300 mg/kg
[19] = mouse, in vivo
[20] = test system: bone marrow derived mast cells (BMMC); experiment: BMMC high cell density ionomycin activation: hexosaminidase; type: cell-based, mouse; conditions: second part of TABLE 1, read-out: BMMC Ionomycin hexos. IC50
basophil cells [21] = experiment: Basophil ionomycin activation: histamine release assay; type: cell-based, human; conditions: Basophils
Method: (§4) The basophil activation assay was carried out using whole human peripheral blood from donors allergic to dust mites with the majority of the red blood cells removed by dextran sedimentation. Human peripheral blood was mixed 1:1 with 3% dextran T500 and RBCs were allowed to settle for 20-25 min. The upper fraction was diluted with 3 volumes of D-PBS and cells were spun down for 10 min at 1500 rpm, RT. Supernatant was aspirated and cells were washed in an equal volume MT-buffer. Finally, cells were resuspended in MT-buffer containing 0.5% DMSO in the original blood volume. 80 uL cells were mixed with 20 uL compound in the presence of 0.5% DMSO, in triplicate, in a V-bottom 96-well tissue culture plate. A dose range of 8 compound concentrations was tested resulting in a 10-point dose response curve including maximum (stimulated) and minimum (unstimulated) response. […] The cells were stimulated for 30 minutes at 37° C., 5% CO2. The plate was spun for 10 min at 1500 rpm at room temperature and 80 uL the supernatant was harvested for histamine content analysis using the histamine ELISA kit supplied by Immunotech. The ELISA was performed according to supplier's instructions.
Assays for ionomycin-induced basophil cell degranulation were carried out as described for the Basophil IgE or Dustmite Activation Assay (Section 6.4.6, supra), with the exception that following incubation with compound, cells were stimulated with 20 μl of 2 μM ionomycin.

basophil cells [22] = experiment: Basophil IgE activation: histamine release assay; type: cell-based, human; conditions: Basophils, anti-IgE
Method: as §4

[23] = test system: bone marrow derived mast cells (BMMC); experiment: BMMC high cell density IgE activation: hexosaminidase; type: cell-based, mouse; conditions: anti-IgE, second part of TABLE 1, read-out: BMMC anti-IgE hexos. IC50
Outline: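 IgE-sensitized BMMC at 1-3×10^6 cells/ml preincubated 1 hour at 37° C. with compound (0.5% DMSO), then stimulated 1 hour with DNP-BSA (6× stimulus 60 ng/ml). Supernatant hexosaminidase measured with 2 mM 4-methylumbelliferyl-N-acetyl-glucosaminide substrate at 37° C., read at 5–30 minutes.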

[24] = test system: cultured human mast cells (CHMC); experiment: CHMC low cell density ionomycin activation: hexosaminidase (Hexos.) release; type: cell-based
[25] = test system: cultured human mast cells (CHMC); experiment: CHMC low cell density anti-IgE activation: hexosaminidase (Hexos.) release; type: cell-based
[26] = 30 mg/sheep, pretreatment 15 min, 10% ethanol
[27] = 67% PEG/33% citrate buffer, pretreatment 10 min, 50 mg/kg
[28] = 67% PEG/33% citrate buffer, pretreatment 10 min, 100 mg/kg
[29] = 67% PEG/33% citrate buffer, pretreatment 10 min, 200 mg/kg

## Oc1cccc(Nc2ncc(F)c(Nc3cccc(O)c3)n2)c1 [R921218, N2,N4-Bis(3-hydroxyphenyl)-5-fluoro-2,4-pyrimidinediamine]
[1]; intranasal 1.7, 3.4 or 5.0 mg/kg/day
  adverse findings: no adverse findings
[1]; rabbit, in vivo, inhaled or intranasal, intranasal, New Zealand White rabbits, read-out: NOAEL (no observed adverse effect level)
  NOAEL at 14 days: 5 mg/kg/day
Syk kinase
  Syk kinase phosphorylation of a peptide substrate: dose responsive inhibition
  Syk kinase phosphorylation of an endogenous substrate (LAT): dose responsive inhibition
[2]
  findings in core safety pharmacology battery: no adverse findings
[3]; cynomolgus monkey, in vivo, inhaled or intranasal, intranasal, Cynomolgus monkeys, read-out: NOAEL (no observed adverse effect level)
  NOAEL at 14 days: 6.3 mg/kg/day
[3]; intranasal 2.1, 4.5 or 6.3 mg/kg/day
  adverse findings: no adverse findings
[4]; [26]
  AHR (% inhibition): 101%
  EAR (% inhibition): 66%
  LAR (% inhibition): 78%
[4]; aqueous suspension
  EAR (in words): failed to inhibit
[5]
  onset of inhibitory activity: immediacy of the inhibitory activity
[6]; [27]
  % Inhibition (PCA): 7%
  Plasma level: 3 µg/mL
[6]; [28]
  % Inhibition (PCA): 11%
  Plasma level: 4 µg/mL
[6]; [29]
  % Inhibition (PCA): 50%
  Plasma level: 18 µg/mL
[6]; solution (67% PEG/33% citrate buffer) or aqueous suspension (1.5% Avicel)
  FcεR-mediated vascular leakage with increasing doses (in words): dose-dependent inhibition
[7]
  dose limiting toxicity, intranasal route, non-rodents (rabbits and primates): no dose limiting toxicity
  dose limiting toxicity, oral route, rodents (mice and rats): no dose limiting toxicity
CHMC cells [8]
  phosphorylation of proteins downstream of Syk kinase: inhibit
CHMC cells [9]
  anti-IgE-induced Ca2+ flux: inhibited
[10]
  mutagenic or clastogenic potential: no evidence for mutagenic or clastogenic potential
BMMC cells
  phosphorylation of various proteins downstream of Syk kinase: inhibit
[11]
  effects after exposure to skin and eyes: nor were there untoward effects
[12]
  FcγRI-mediated degranulation (in words): inhibit FcγRI-mediated degranulation
CHMC cells [13]
  ionomycin-induced Ca2+ flux: no effect

## Nc1cccc(Nc2ncc(F)c(Nc3cccc(N)c3)n2)c1 [R921302, N2,N4-Bis(3-aminophenyl)-5-fluoro-2,4-pyrimidinediamine]
[14]
  Ames test result: test positive in tester strain TA98 with S9 and TA1537, with and without metabolic activation
[15]
  metabolic stability in pharmacokinetics studies (in words): most metabolically stable compound
[16]
  clastogenic potential: not clastogenic
[17]; pretreatment 30 min
  concentration at 30 min: 88 µg/mL
[17]; pretreatment 60 min
  concentration at 60 min: 53 µg/mL
[17]; pretreatment 120 min
  concentration at 120 min: 61 µg/mL
[17]; pretreatment 240 min
  concentration at 240 min: 8 µg/mL
[6]; 1.5% Avicel/water, pretreatment 60 min, 50 mg/kg
  Plasma level: 25 µg/mL
[6]; 1.5% Avicel/water, pretreatment 60 min, 100 mg/kg
  Plasma level: 38 µg/mL
[6]; 1.5% Avicel/water, pretreatment 60 min, 150 mg/kg
  Plasma level: 64 µg/mL
[6]; 1.5% Avicel/water, pretreatment 60 min, 200 mg/kg
  Plasma level: 105 µg/mL
[6]; mouse, in vivo
  time prior to antigen-induced receptor signaling over which vascular permeability was inhibited before efficacy began to decrease: 1 to 2 h
In vivo
  NOAEL at 14 days: 100 mg/kg
[18]
  tolerability, oral doses for 32 days: appeared to be well tolerated
[19]
  oral dose tolerated for up to 7-days: 1000 mg/kg
[19]; 100 mg/kg
  tolerability, 28-day oral toxicity study: appeared to be well tolerated
[19]; 300 mg/kg
  tolerability, 28-day oral toxicity study: not tolerated
[12]
  FcγRI-mediated degranulation (in words): inhibit FcγRI-mediated degranulation

## Fc1cnc(Nc2ccc(N3CCOCC3)cc2)nc1Nc1ccc(N2CCOCC2)cc1 [R926114, N2,N4-Bis[4-(N-morpholino)phenyl]-5-fluoro-2,4-pyrimidinediamine]
[20]
  IC50: > 10 µM
Basophil cells [21]
  IC50: 10 µM
Basophil cells [22]
  IC50: 1.7 µM
[23]
  IC50: > 10 µM
[24]
  IC50: 8.1 µM
[25]
  IC50: 3.43 µM
